Data set [1] can be described thus: Relaxation time and relaxivity of nitroxyl contrast agents compared with Gd-DTPA. In kind it is physicochemical. From the text:
The present invention is predicated on the difference in reducing capability and provides a method of determining the redox status of a region of interest in an animal tissue, such as a tumor. By determining the redox status of a tumor it is possible to not only diagnose a tumor due to its enhanced reduction of intracellular nitroxide contrast agent, but also to determine appropriate radiation treatment fields spatially to deliver therapeutic doses of radiation, and to determine appropriate timing sequences after the administration of a nitroxide contrast agent such that the maximum difference between normal and tumor tissue with respect to the radioprotective form of the nitroxide is present in the normal tissue, thereby limiting collateral damage to the normal tissue. The T1-contrast afforded by the nitroxide class of compounds, by virtue of their paramagnetic relaxivity which is in the range of 0.2 (mM s)−1 makes it possible to use standard MRI scanners to obtain the redox information in the inventive method. Typical relaxivity and relaxation times are shown for various nitroxyl contrast agents compared with a standard contrast agent, Gd-DTPA, in Table 1. […] Without being bound to any particular theory, it is believed that the T1 relaxation of protons could be affected by paramagnetic electron spin. Therefore, a change of MRI contrast before and after administration of a nitroxyl spin probe (i.e., a nitroxide contrast agent) should reflect the amount of nitroxyl in addition to providing anatomical mapping simultaneously. Such anatomical mapping provides the ability to diagnose the existence of a tumor, determine the status of a tumor, determine borders of a radiation treatment field, determine appropriate timing and dosage for radiation treatment, as well as determining the efficacy of radiation and other forms of cancer treatment.

Data set [2] is described as follows: Decay rate of nitroxyl contrast agent by 300 MHz CW EPR imaging (EPRI). In kind it is in vivo, C3H mice. To be noted: 1.8 μmol/g b.w. i.v., mean ± SD. As for the experimental part: (§1) Female C3H mice were supplied by the Frederick Cancer Research Center, Animal Production (Frederick, Md.). Animals, received at six weeks of age, were housed five per cage in climate controlled circadian rhythm-adjusted rooms and were allowed food and water ad libitum. Experiments were carried out in compliance with the Guide for the Care and Use of Laboratory Animal Resources (1996), National Research Council, and approved by the National Cancer Institute Animal Care and Use Committee. Experiments were performed within 4 weeks of their arrival at the facility. Their body weight measured before the experiments was in the range 25-28 g. A squamous cell carcinoma was implanted and grown on the right hind leg for a week.
Mice were anesthetized by isoflurane (1.5%) in medical air (700 mL/min). Both tumor and normal legs were placed on special mouse holder and fixed with adhesive tapes on the divider between both legs. […]
The EPRI and MRI data were analyzed using the ImageJ software package (a public domain Java image processing program inspired by NIH Image that can be extended by plug-ins, http://rsb.info.nih.gov/ij/). T1 and T2 mappings were calculated using a plug-in (MRI analysis calculator, Karl Schmidt, HypX Laboratory, Brigham and Women's Hospital) available in ImageJ.
A time course of CW EPR imaging after injection of a nitroxyl contrast agent was determined. […]

Data set [3] is described as follows: Decay rate of nitroxyl contrast agent by in vivo 700 MHz EPR spectroscopy with surface coil (EPRS). On the set-up: species or system C3H mice. Particulars: linear part 7.5-20 min, mean ± SD. How it is done:
as §1
In vivo EPR spectroscopic measurement of the nitroxyl probe were obtained. Mice were anesthetized and placed on special mouse holder and fixed with adhesive tapes. The single loop surface coil (7.3 mm i.d.) was placed on the normal or the tumor leg. EPR signal was measured by CW EPR at 700 MHz. EPR conditions were as follows: microwave frequency=700 MHz, microwave power=10 mW, field modulation frequency=13.5 kHz, field modulation amplitude=0.3 Gauss, time constant=0.03 s, sweep width=60 Gauss, scan time=8 s. The center line of the triplet was repeatedly obtained every 20 s for 20 min. […]

Data set [4] in a line: Decay rate of nitroxyl contrast agent by 4.7 T SPGR T1-weighted MRI. In kind it is in vivo, C3H mice. Particulars: 1.5 μmol/g b.w. i.v., mean ± SD. How it is done: as §1
MRI and pulse sequence measurements were also obtained. MRI measurements were performed at 4.7 T controlled with ParaVision®3.0.1 (Bruker BioSpin MRI GmbH, Rheinstetten, Germany). […]
The EPRI and MRI data were analyzed using the ImageJ software package (a public domain Java image processing program inspired by NIH Image that can be extended by plug-ins, http://rsb.info.nih.gov/ij/). T1 and T2 mappings were calculated using a plug-in (MRI analysis calculator, Karl Schmidt, HypX Laboratory, Brigham and Women's Hospital) available in ImageJ. […]

Data set [5] in a line: Nitroxyl radical decay rate in tissues, from change in MRI contrast over time. Format: in vivo, mice. To be noted: for Decay Rate: MRI, mean ± SD. As for the experimental part: In the inventive method, the amount of reduced nitroxyl contrast agent (i.e., hydroxylamine) in the animal tissue is determined. This determination can be made using any suitable method. For example, MRI contrast changes and the difference in concentration of a nitroxyl contrast agent, such as 3CP, show linearity in low concentration level (i.e., below 1.5 mM). To perform T1 and T2 mapping, spin echo images can be obtained using a multi-slice multi-echo (MSME) sequence. For instance, a time sequence of the total number of SPGR images may be determined. The images can then be averaged and each image may be divided by the averaged initial image. Semi-logarithmic values of the averaged image intensity in a given region of interest can be plotted versus time after injection. The change in intensity can be determined at one or more time points after injection of a nitroxyl contrast agent. For example, changes in intensity may be made every 10 s, 20 s, 30, 40 s, 50 s, or every 1, 5, 7, 10, 15, 20 minutes, or any integer in between, after injection of a nitroxyl contrast agent. A decay rate can be obtained from the linear part of the slope after peak by the least squares method. A sample calculation of a decay rate using nitroxyl contrast agent 3CP is as follows: The spoiled gradient echo (SPGR) image intensity Mt at time t after nitroxyl contrast agent injection can be calculated using the equation:
Mt=M0×[1−EXP(−TR/T1t)]×EXP(−TE/T2)×{sin α/[1−cos α×EXP(−TR/T1t)]}.
In the above equation, MO is proton density, and a is flip angle. Tissue (or sample) T1 can change with particular time t (min.) (T1t) depending on the concentration of the 3CP (Ct). T1t[…]1/R1t and R1t=1/T1i+r1×Ct, where R1t is T1 relaxation […] t, the relaxivity r1 of 3CP is 0.17 mM^−1s-1, T1i is the initial T1 base line (intrinsic tissue T1). Ct (mM), which is the first concentration of 3CP at particular time t (min.), is calculated by assuming first order decay as indicated by the equation Ct=Cmax×EXP([…]), where ktrue is the given decay rate. Logarithmic values of the intensity change from the baseline (ie. ΔM % t=(Mt/Mi−1)×100 or ΔMt=Mt−Mi), can be plotted with time t. Mi is the intrinsic signal intensity of the tissue (or sample) calculated as Ct=0. The decay constant kMRI can be obtained from the slopes of the plots ΔM % t and ΔMt by least square fit.
Typical decay rates, determined by a change in intensity over time, are shown in Table 1 and FIG. 1 for nitroxyl contrast agents Tempol, Carbamoyl-PROXYL, Carboxyl-PROXYL in normal tissue, tumor, blood, and left and right kidney tissues. These decay rates may then be used to determine the redox status of the tissue. When a decay rate is calculated pixel-wise, redox mapping can be obtained. That is, regions showing a faster rate of decay correspond to hypoxic regions.

Marks after values point to notes of the source that are not given here.

In data set [1], `CC1(C)CC(C(N)=O)C(C)(C)N1[O]` (stereo not drawn) [Carbamoyl-PROXYL, 3-carbamoyl-2,2,5,5-tetramethyl-1-pyrrolidine-N-oxyl] showed a Relaxivity of 0.171 mM⁻¹ s⁻¹. For the same compound, the “relaxivity r1” value in data set [1] (value used in sample decay-rate calculation) is 0.17 mM⁻¹ s⁻¹. The results for the “Normal Leg Decay Rate” value in data set [2] (normal leg), in data set [3] (normal leg) and in data set [4] (normal leg) were 0.0356 ± 0.0122 min⁻¹, 0.0551 ± 0.0059 min⁻¹ and 0.0766 ± 0.0070 min⁻¹, respectively. Further, the entries for the “Tumor Leg Decay Rate” value in data set [2] (squamous cell carcinoma leg), in data set [3] (squamous cell carcinoma leg) and in data set [4] (squamous cell carcinoma leg) were 0.0468 ± 0.0086 min⁻¹, 0.0669 ± 0.0144* min^−1 and 0.1073 ± 0.0057* min^−1, respectively.
In data set [1], `CC1(C)CC(C(=O)O)C(C)(C)N1[O]` (stereo not drawn) [Carboxy-PROXYL] yielded a Relaxivity of 0.180 mM⁻¹ s⁻¹.
Take `CC1(C)CC(O)CC(C)(C)N1[O]` [Tempol, 2,2,6,6-tetramethyl-4-piperidinol-N-oxyl]: the “Decay Rate” value in data set [5] (Blood) is 1.025 ± 0.213 min⁻¹; in data set [5] (Left Kidney), 1.470 ± 0.199 min⁻¹; in data set [5] (Normal Leg) it was 0.319 ± 0.025 min⁻¹; in data set [5] (Right Kidney) it was 1.160 ± 0.333 min⁻¹; in data set [5] (Tumor Leg), 1.095 ± 0.203** min^−1. For the same compound, the “rate of decay, tumor versus normal tissue” value in data set [5] (in vivo MRI, FIG. 2) is “greater in tumor versus normal tissue”.

(Values after patent publication US20090028798A1, “METHOD FOR DETERMINING REDOX STATUS OF A TISSUE” (Government of the USA, represented by the Secretary, …, priority 2005, published 2009).)
